Source: ChEMBL document CHEMBL1122681, “(Acylaryloxy)acetic acid diuretics. 5. [(2-Alkyl- and 2,2-disubstituted-1,3-dioxo-5-indanyl)oxy]acetic acids” (J Med Chem, 1984)

Key:
Canis familiaris [1] = test: Compound was evaluated for diuretic activity, in female mongrel dogs by measuring volume of urine, after iv administration of 5 mg/kg (control/compound treatment results) Control = 1; type: ADME, organism-based, Canis lupus familiaris; design: dose 5 mg/kg, route intravenous; conditions: dog, in vivo
[2] = volume of urine at 3 mg/kg; type: ADME, organism-based; design: dose 3 mg/kg; conditions: in vivo
[3] = volume of urine at 81 mg/kg; type: ADME, organism-based; design: dose 81 mg/kg; conditions: in vivo
[4] = volume of urine at 9 mg/kg; type: ADME, organism-based; design: dose 9 mg/kg; conditions: in vivo
Pan troglodytes [5] = test: Compound was evaluated for diuretic activity in chimpanzee measured as increase in volume of urine at 1 mg/kg; type: functional
Pan troglodytes [6] = test: Compound was evaluated for diuretic activity in chimpanzee measured as clearance of […] and urate after intra venous administration of 1.25 mg/kg.; type: functional, Urine
Pan troglodytes [7] = test: Compound was evaluated for diuretic activity in chimpanzee measured as clearance of […] and urate after peroral administration of 5 mg/kg; type: functional, Urine; conditions: route oral
Pan troglodytes [8] = test: Compound was evaluated for diuretic activity in chimpanzee measured as increase in the number of microequivalents of Na+ /min at 1.25 mg/kg; type: functional, Urine
Pan troglodytes [9] = test: Compound was evaluated for diuretic activity in chimpanzee measured as increase in the number of microequivalents of Na+ /min at 5 mg/kg; type: functional, Urine
Pan troglodytes [10] = test: Compound was evaluated for diuretic activity in chimpanzee measured as increase in the number of microequivalents of cl- /min at 1.25 mg/kg; type: functional, Urine
Pan troglodytes [11] = test: Compound was evaluated for diuretic activity in chimpanzee measured as increase in volume of urine at 0.125 mg/kg; type: functional
Pan troglodytes [12] = test: Compound was evaluated for diuretic activity in chimpanzee measured as increase in the number of microequivalents of Cl- electrolyte/min at 5 mg/kg; type: functional, Urine
Pan troglodytes [13] = test: Compound was evaluated for diuretic activity in chimpanzee measured as increase in the number of microequivalents of K+ /min at 1.25 mg/kg; type: functional, Urine
Canis familiaris [14] = test: Compound was evaluated for diuretic activity, in female mongrel dogs by measuring amount of Cl- in urine after iv administration of 5 mg/kg (control/compound treatment results) Control = 8; type: functional, Canis lupus familiaris
Pan troglodytes [15] = test: Compound was evaluated for diuretic activity in chimpanzee measured as increase in the number of microequivalents of K+ /min at 5 mg/kg; type: functional, Urine
Canis familiaris [16] = test: Compound was evaluated for diuretic activity, in female mongrel dogs by measuring amount of Na+ in urine after iv administration of 5 mg/kg (control/compound treatment results) Control = 42; type: functional, Canis lupus familiaris
Canis familiaris [17] = test: Compound was evaluated for diuretic activity, in female mongrel dogs by measuring amount of K+ in urine after iv administration of 5 mg/kg (control/compound treatment results) Control = 5; type: functional, Canis lupus familiaris
Rattus norvegicus [18] = test: Compound was evaluated for diuretic activity administered orally in female rats measured as milliequivalents of Na+x 100 / cage at 81 mg/kg; type: functional, Urine; conditions: route oral
Rattus norvegicus [19] = test: Compound was evaluated for diuretic activity administered orally in female rats measured as milliequivalents of Na+x 100 / cage at 9 mg/kg; type: functional, Urine; conditions: route oral
Rattus norvegicus [20] = test: Compound was evaluated for diuretic activity administered orally in female rats measured as milliequivalents of Cl-+x 100 / cage at 27 mg/kg; type: functional, Urine; conditions: route oral
Rattus norvegicus [21] = test: Compound was evaluated for diuretic activity administered orally in female rats measured as milliequivalents of Cl-x 100 / cage at 3 mg/kg; type: functional, Urine; conditions: route oral
Rattus norvegicus [22] = test: Compound was evaluated for diuretic activity administered orally in female rats measured as milliequivalents of Cl-x 100 / cage at 81 mg/kg; type: functional, Urine; conditions: route oral
Rattus norvegicus [23] = test: Compound was evaluated for diuretic activity administered orally in female rats measured as milliequivalents of Cl-x 100 / cage at 9 mg/kg; type: functional, Urine; conditions: route oral
Rattus norvegicus [24] = test: Compound was evaluated for diuretic activity administered orally in female rats measured as milliequivalents of K+x 100 / cage at 27 mg/kg; type: functional, Urine; conditions: route oral
Rattus norvegicus [25] = test: Compound was evaluated for diuretic activity administered orally in female rats measured as milliequivalents of K+x 100 / cage at 3 mg/kg; type: functional, Urine; conditions: route oral
Rattus norvegicus [26] = test: Compound was evaluated for diuretic activity administered orally in female rats measured as milliequivalents of K+x 100 / cage at 81 mg/kg; type: functional, Urine; conditions: route oral
Rattus norvegicus [27] = test: Compound was evaluated for diuretic activity administered orally in female rats measured as milliequivalents of K+x 100 / cage at 9 mg/kg; type: functional, Urine; conditions: route oral
Rattus norvegicus [28] = test: Compound was evaluated for diuretic activity administered orally in female rats measured as milliequivalents of Na+x 100 / cage at 27 mg/kg; type: functional, Urine; conditions: route oral
Rattus norvegicus [29] = test: Compound was evaluated for diuretic activity administered orally in female rats measured as milliequivalents of Na+x 100 / cage at 3 mg/kg; type: functional, Urine; conditions: route oral
[30] = volume of urine at 27 mg/kg; type: ADME, organism-based; design: dose 27 mg/kg; conditions: in vivo
Canis familiaris [31] = test: Compound was evaluated for diuretic activity, in female mongrel dogs by measuring volume of urine, after iv administration of 5 mg/kg (control/compound treatment results) Control = 2; type: ADME, organism-based, Canis lupus familiaris; design: dose 5 mg/kg, route intravenous; conditions: dog, in vivo
Pan troglodytes [32] = test: Compound was evaluated for diuretic activity in chimpanzee measured as increase in volume of urine at 5 mg/kg; type: functional
Pan troglodytes [33] = test: Compound was evaluated for diuretic activity in chimpanzee measured as clearance of […] and urate after intra venous administration of 5 mg/kg.; type: functional, Urine
Pan troglodytes [34] = test: Compound was evaluated for diuretic activity in chimpanzee measured as increase in the number of microequivalents of Na+ /min at 1 mg/kg; type: functional, Urine
Pan troglodytes [35] = test: Compound was evaluated for diuretic activity in chimpanzee measured as increase in the number of microequivalents of Cl- /min at 5 mg/kg; type: functional, Urine
Pan troglodytes [36] = test: Compound was evaluated for diuretic activity in chimpanzee measured as increase in the number of microequivalents of Cl- electrolyte/min at 1 mg/kg; type: functional, Urine
Pan troglodytes [37] = test: Compound was evaluated for diuretic activity in chimpanzee measured as increase in the number of microequivalents of K+ /min at 1 mg/kg; type: functional, Urine
Canis familiaris [38] = test: Compound was evaluated for diuretic activity, in female mongrel dogs by measuring amount of K+ in urine after iv administration of 5 mg/kg (control/compound treatment results) Control = 13; type: functional, Canis lupus familiaris
Canis familiaris [39] = test: Compound was evaluated for diuretic activity, in female mongrel dogs by measuring amount of Cl- in urine after iv administration of 5 mg/kg (control/compound treatment results) Control = 5; type: functional, Canis lupus familiaris
Canis familiaris [40] = test: Compound was evaluated for diuretic activity, in female mongrel dogs by measuring amount of Na+ in urine after iv administration of 5 mg/kg (control/compound treatment results) Control = 59; type: functional, Canis lupus familiaris

CCC1(C)C(=O)c2cc(OCC(=O)O)c(Cl)c(Cl)c2C1=O (centres undefined)
Urine volume (Canis familiaris [1]): 2 mL/min
Urine volume [2]: 30 mL
Urine volume [3]: 31 mL
Urine volume [4]: 29 mL
Increase in volume (Pan troglodytes [5]): 2 mL/min
Delta C urate / delta C insulin (Pan troglodytes [6]): 0.43
Delta C urate / delta C insulin (Pan troglodytes [7]): 0.007
Increase (Pan troglodytes [8]): 187
Increase (Pan troglodytes [9]): 217
Increase (Pan troglodytes [10]): 267
Increase in volume (Pan troglodytes [11]): 1.4 mL/min
Increase (Pan troglodytes [12]): 226
Increase (Pan troglodytes [13]): 41
Activity (Canis familiaris [14]): 179 u equiv min-1
Increase (Pan troglodytes [15]): 30
Activity (Canis familiaris [16]): 247 u equiv min-1
Activity (Canis familiaris [17]): 7 u equiv min-1
Activity (Rattus norvegicus [18]): 164
Activity (Rattus norvegicus [19]): 80
Activity (Rattus norvegicus [20]): 130
Activity (Rattus norvegicus [21]): 64
Activity (Rattus norvegicus [22]): 250
Activity (Rattus norvegicus [23]): 97
Activity (Rattus norvegicus [24]): 43
Activity (Rattus norvegicus [25]): 46
Activity (Rattus norvegicus [26]): 89
Activity (Rattus norvegicus [27]): 35
Activity (Rattus norvegicus [28]): 101
Activity (Rattus norvegicus [29]): 50
Urine volume [30]: 27 mL

Cc1c(OCc2nn[nH]n2)cc2c(c1Cl)C(=O)C1(CCCC1)C2=O
Urine volume (Canis familiaris [31]): 3 mL/min
Increase in volume (Pan troglodytes [5]): 0.6 mL/min
Increase in volume (Pan troglodytes [32]): 0 mL/min
Delta C urate / delta C insulin (Pan troglodytes [33]): 0.128
Delta C urate / delta C insulin (Pan troglodytes [7]): 0.026
Increase (Pan troglodytes [34]): 119
Increase (Pan troglodytes [9]): 5
Increase (Pan troglodytes [35]): 36
Increase (Pan troglodytes [36]): 172
Increase (Pan troglodytes [37]): 55
Activity (Canis familiaris [38]): 27 u equiv min-1
Activity (Canis familiaris [39]): 11 u equiv min-1
Increase (Pan troglodytes [15]): 2
Activity (Canis familiaris [40]): 193 u equiv min-1
